Experimental data reported in the supplement of paper PMC10307832.

Legend:
Test in all cases: relative viability (nuclei count vs DMSO), 5 days (fraction); higher = more cells survive
XMD8-85 + OSI-027 = compound: CN1CCN(CC1)C2=CC(=C(C=C2)NC3=NC=C4C(=N3)N(C5=CC=CC=C5C(=O)N4C)C)OC [XMD8-85] + COc1cccc2cc(-c3nc([C@H]4CC[C@H](C(=O)O)CC4)n4ncnc(N)c34)[nH]c12 [OSI-027] (partner 0.5 µM)
In short: (§1)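 Lung cancer cell lines in 1536-well plates were dosed by pin tool the day after seeding, either with one drug alone or with a fixed anchor-drug dose plus five library-drug doses (not always all listed) in √10 steps. After 5 days, cells were fixed and their nuclei stained in one step (final 0.05% Triton X-100, 1% formaldehyde, 1 ug/ml Hoechst), then counted on 4× images. Relative viability is the nuclei count in treated wells divided by that in vehicle wells. Values are medians of duplicate plates.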

XMD8-85 + Crizotinib = compound: CN1CCN(CC1)C2=CC(=C(C=C2)NC3=NC=C4C(=N3)N(C5=CC=CC=C5C(=O)N4C)C)OC [XMD8-85] + C[C@@H](Oc1cc(-c2cnn(C3CCNCC3)c2)cnc1N)c1c(Cl)ccc(F)c1Cl [Crizotinib] (partner 1 µM)
In short: as §1

4EGI-1 + OSI-027 = compound: O=C(O)C(Cc1ccccc1[N+](=O)[O-])=NNc1nc(-c2ccc(Cl)c(Cl)c2)cs1 (mixture of isomers) [4EGI-1] + COc1cccc2cc(-c3nc([C@H]4CC[C@H](C(=O)O)CC4)n4ncnc(N)c34)[nH]c12 [OSI-027] (partner 0.5 µM)
In short: as §1

XMD8-85 + Decitabine = compound: CN1CCN(CC1)C2=CC(=C(C=C2)NC3=NC=C4C(=N3)N(C5=CC=CC=C5C(=O)N4C)C)OC [XMD8-85] + Nc1ncn([C@H]2C[C@H](O)[C@@H](CO)O2)c(=O)n1 [Decitabine] (partner 2 µM)
In short: as §1

Cell Line	relative viability (XMD8-85 + OSI-027; first compound 0.08 µM)	relative viability (XMD8-85 + OSI-027; first compound 0.253 µM)	relative viability (XMD8-85 + OSI-027; first compound 0.8 µM)	relative viability (XMD8-85 + OSI-027; first compound 2.53 µM)	relative viability (XMD8-85 + OSI-027; first compound 8 µM)	relative viability (XMD8-85 + Crizotinib; first compound 0.08 µM)	relative viability (XMD8-85 + Crizotinib; first compound 0.253 µM)	relative viability (XMD8-85 + Crizotinib; first compound 0.8 µM)	relative viability (XMD8-85 + Crizotinib; first compound 2.53 µM)	relative viability (XMD8-85 + Crizotinib; first compound 8 µM)	relative viability (4EGI-1 + OSI-027; first compound 0.5 µM)	relative viability (4EGI-1 + OSI-027; first compound 1.581 µM)	relative viability (4EGI-1 + OSI-027; first compound 5 µM)	relative viability (4EGI-1 + OSI-027; first compound 15.81 µM)	relative viability (4EGI-1 + OSI-027; first compound 50 µM)	relative viability (XMD8-85 + Decitabine; first compound 0.08 µM)	relative viability (XMD8-85 + Decitabine; first compound 0.253 µM)	relative viability (XMD8-85 + Decitabine; first compound 0.8 µM)	relative viability (XMD8-85 + Decitabine; first compound 2.53 µM)	relative viability (XMD8-85 + Decitabine; first compound 8 µM)
NCI-H727	0.631	0.772	0.705	0.535	0.359	0.78	0.777	0.755	0.595	0.358	0.669	0.652	0.538	0.552	0.451	0.867	1.04	0.84	0.894	0.643
NCI-H838	0.386	0.463	0.343	0.346	0.339	0.774	0.808	1.07	0.815	0.292	0.419		0.403	0.362	0.218	0.572	0.46	0.476	0.449	0.354
NCI-H1355	0.385	0.43	0.403	0.448	0.309	1.16	1.07	1.06	0.989	0.77	0.397	0.354	0.384	0.291	0.264	0.359	0.308	0.345	0.355	0.329
NCI-H1437	0.862	0.876	0.902	0.852	0.595	0.76	0.923	1.14	0.856	0.491	0.945	0.853	0.886	0.743	0.256	0.641	0.534	0.596		0.501
NCI-H1650	0.674	0.47	0.599	0.637	0.357	1.01	0.773	1.12	0.715	0.256	0.705		0.681	0.263	0.173	0.539	0.414	0.487	0.374	0.371
NCI-H1651	0.752	0.695	0.676	0.647	0.638	0.924	0.855	0.822	0.836	0.772	0.845	0.565	0.693	0.664	0.463	0.595	0.592	0.601	0.67	0.506
NCI-H1666	0.816	0.876	0.893	0.907	0.679	0.789	0.917	1.35	1.31	0.705	0.841	0.805	0.948	0.606	0.433	0.703	0.724		0.692	0.68
NCI-H1734	0.579	0.664	0.609	0.699	0.425	0.614	0.646	0.724	0.577	0.368	0.698	0.432	0.618	0.55	0.23		0.519	0.528	0.591	0.464
NCI-H1755	0.677	0.787	0.645		0.531	0.901	0.978	0.892	0.939	0.748	0.791	0.663	0.693	0.713	0.487	0.754	0.677	0.714	0.764	0.724
NCI-H1915	0.622	0.648	0.651	0.672	0.507	1.06	0.909	0.943	0.998	0.882	0.623	0.448	0.625	0.617	0.287	0.279	0.262	0.838	0.563	0.253
NCI-H1944	0.391	0.442	0.461	0.514	0.297	1.02	0.999	1.3	1.35	0.979	0.427		0.392	0.307	0.303	0.451	0.404	0.462	0.456	0.422
NCI-H1975	0.53	0.678	0.807	0.762	0.445	1.08	0.827	1.07	0.937	0.352	0.837	0.665	0.792	0.74	0.391	0.392	0.359	0.382	0.328	0.35
NCI-H1993	0.516	0.454	0.636	0.548	0.552	0.783	0.77	0.869	0.944	0.64	0.495	0.528	0.627	0.611	0.577	0.543	0.555	0.585	0.561	0.57
NCI-H2009	0.589	0.704	0.638	0.508	0.324	1.03	0.981	1.1	1.06	0.395	0.765	0.651	0.768	0.657	0.161	0.42	0.371	0.414	0.417	0.255
NCI-H2023	0.314	0.434	0.402	0.37	0.248	0.578	0.627	0.705	0.544	0.287	0.712		0.359	0.162	0.0791	0.176	0.198	0.25	0.244	0.227
NCI-H2085	0.712	0.969	0.697	0.64	0.474	0.76	0.738	0.795	0.859	0.559	0.837	0.777	0.704	0.378	0.428	0.546	0.529	0.538	0.535	0.517
